Measurements reported in patent US20250388592A1 (REMYND N.V., priority 2022, published 2025).

Assays:
M17_3TAU(P301L) cells = test: TAU-induced cytotoxicity (LDH) in the neuroblastoma tauopathy model; format: cell-based; conditions: Homo sapiens, 168 h, inhibition of TAU-induced toxicity, 7 days retinoic acid differentiation, LDH readout
In short: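 Stably transfected BE-M17 cells expressing human TAU-P301L, seeded in serum-free detection medium, then differentiated with 2.5 μM RA (added in equal volume) for 7 days at 37° C/5% CO2 to induce TAU aggregation. Cytotoxicity = supernatant LDH increase over total LDH; EC50 from dose-dependent inhibition curves.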

[1] = test system: Tau-P301S transgenic mice; test: Hippocampal long-term potentiation (CA3-CA1 fEPSP) in human Tau transgenic mice model of Alzheimer disease; format: in vivo, mouse; conditions: 41-60 minute post-induction interval
Source text: The Tau-P301S line of mice was transgenic for the 383 aa isoform of human tau with the P301S mutation (Allen et al., 2002). In these mice, a clinical mutant of the human Tau (P301S) was expressed under control of the murine Thy1 promoter (neuron-specific expression) in C57Bl/6JxCBA/ca background. The homozygous hTauP301S-Tg model used consisted of the progeny from a cross between two homozygous hTauP301S-Tg parental mice in C57Bl/6JxCBA/ca background, bred in SPF breeding conditions.
Six mice (3,5 months of age) per group were treated orally once daily for 7 days with vehicle or 0.4, 2 or 10 mg/kg cpd B061, or twice daily for 7 days with vehicle or 25 mg/kg cpd B112, formulated in labrasol/capryol (70/30% W/V). A wild type vehicle group was included as well. The mice in study were sacrificed after a minimum of 7 days of acclimatization and 7 days of dosing. LTP measurements occurred between 90 and 120 minutes after excision of the brain.
Mice were anaesthetized with isoflurane and then decapitated. Heads were immediately immersed in ice-cold freshly prepared artificial CSF (cerebrospinal fluid) (aCSF) for at least 2 min before brain extraction. Acute slices (400 μm thick) were prepared with a vibratome (VT 1000S; Leica Microsystems, Bannockburn, IL) in ice-cold gassed aCSF. Sections were incubated in aCSF at 34° C. for 20 min and then kept at room temperature for at least 1 h before recording. aCSF was composed of the following (in mM): 119 NaCl, 11 d-glucose, 1.3 MgCl2·6H2O, 1.3 NaH2PO4, 2.5 KCl, 2.5 CaCl2, 26 NaHCO3, gassed with O2/CO2 (95/5%) at least 20 min before use and throughout the experiment.
Recordings were performed in a submerged chamber continuously flowed with aCSF at 2 ml/min. Extracellular field excitatory postsynaptic potentials (fEPSPs) were recorded in the CA1 stratum radiatum using a glass micropipette filled with aCSF. fEPSPs were evoked by the electrical

Row | SMILES | EC50 (M17_3TAU(P301L) cells) [nM] | further results
1 | O=C(Cc1ccc(Cl)cc1)N1CC2(CN(Cc3ccc(F)cc3)C2)C1 [Cpd B061, 2-(4-chlorophenyl)-1-(6-(4-fluorobenzyl)-2,6-diazaspiro[3.3]heptan-2-yl)ethanone] | 2.46 | Average fEPSP slope (% of baseline) ([1]; 0.4 mpk orally once daily for 7 days): 129.0 % of baseline; Average fEPSP slope (% of baseline) ([1]; 2 mpk orally once daily for 7 days): 152.2 % of baseline; Average fEPSP slope (% of baseline) ([1]; 10 mpk orally once daily for 7 days): 169.3 % of baseline
2 | COc1ccc(CCNC2CC3(C2)CC(Nc2nc(Cc4ccc(Cl)cc4)ns2)C3)cc1 (stereo not shown) [Cpd B333, N-(3-(4-chlorobenzyl)-1,2,4-thiadiazol-5-yl)-N′-(4-methoxyphenethyl) spiro[3.3]heptane-2,6-diamine] | 2 | 
3 | Clc1ccc(Cc2nsc(NC3CC4(CC(NCCc5ccccc5Cl)C4)C3)n2)cc1 (stereo not shown) [Cpd B334, N-(3-(4-chlorobenzyl)-1,2,4-thiadiazol-5-yl)-N′-(2-chlorophenethyl) spiro[3.3]heptane-2,6-diamine] | 2 | 
4 | COc1ccc(CCNC2CC3(C2)CC(Nc2nc(Cc4ccc(Cl)cc4)ns2)C3)cc1OC (stereo not shown) [Cpd B335, N-(3-(4-chlorobenzyl)-1,2,4-thiadiazol-5-yl)-N′-(3,4-dimethoxyphenethyl) spiro[3.3]heptane-2,6-diamine] | 3 | 
5 | FC(F)(F)c1cccc(CCNC2CC3(C2)CC(Nc2nc(Cc4ccc(Cl)cc4)ns2)C3)c1 (stereo not shown) [Cpd B336, N-(3-(4-chlorobenzyl)-1,2,4-thiadiazol-5-yl)-N′-(3-(trifluoromethyl)phenethyl) spiro[3.3]heptane-2,6-diamine] | 7 | 
6 | Cn1cc(CN2CC3(C2)CN(C(=O)NCc2ccc(F)cc2)C3)cn1 [Cpd B405] | 4820 | 
7 | Cn1ccc(CN2CC3(C2)CN(C(=O)NCc2ccc(F)cc2)C3)n1 [Cpd B406] | 4620 | 
8 | Cc1cccc(C(=O)N2CC3(CN(Cc4ncccc4C)C3)C2)c1 [Cpd B407] | 4310 | 
9 | Cc1cccnc1CN1CC2(C1)CN(C(=O)CC13CC(C1)C3)C2 [Cpd B408] | 4000 | 
10 | O=C(Cc1cccnc1)N1CC2(CN(Cc3ccc(F)cc3)C2)C1 [Cpd B409] | 3720 | 
11 | CCn1cc(CN2CC3(C2)CN(C(=O)NCc2ccc(F)cc2)C3)cn1 [Cpd B410] | 3320 | 
12 | Cc1nc(CN2CC3(C2)CN(C(=O)C(F)(F)c2ccc(F)cc2)C3)cs1 [Cpd B411] | 3010 | 
13 | Cc1cccnc1CN1CC2(C1)CN(C(=O)c1cc3ccccc3o1)C2 [Cpd B412] | 2850 | 
14 | Cc1c(CN2CC3(C2)CN(C(=O)NCc2ccc(F)cc2)C3)cnn1C [Cpd B413] | 2770 | 
15 | O=C(Cc1ccccn1)N1CC2(CN(Cc3ccc(F)cc3)C2)C1 [Cpd B414] | 2710 | 
16 | CCc1cc(CC(=O)N2CC3(CN(Cc4ccc(F)cc4)C3)C2)ccn1 [Cpd B415] | 2410 | 
17 | COc1cccc(CC(=O)N2CC3(CN(Cc4ncccc4C)C3)C2)c1 [Cpd B416] | 2220 | 
18 | Cc1ncc(CN2CC3(C2)CN(C(=O)NCc2ccc(F)cc2)C3)s1 [Cpd B417] | 1690 | 
19 | Cc1nc(CN2CC3(C2)CN(C(=O)NCc2ccc(F)cc2)C3)cs1 [Cpd B418] | 1330 | 
20 | COc1cccc(CN2CC3(C2)CN(C(=O)Cc2ccccn2)C3)c1 [Cpd B419] | 1260 | 
21 | COc1cccc(CN2CC3(C2)CN(C(=O)Nc2cccc(OC)c2)C3)c1 [Cpd B420] | 1210 | 
22 | Cc1ccc(CN2CC3(C2)CN(C(=O)NCc2ccc(F)cc2)C3)[nH]1 [Cpd B421] | 981 | 
23 | COc1cccc(CN2CC3(C2)CN(C(=O)NC2CC(F)(F)C2)C3)c1 [Cpd B422] | 978 | 

Row | SMILES | EC50 (M17_3TAU(P301L) cells) [nM] | further results
24 | O=C(Cc1ccccc1O)N1CC2(CN(Cc3ccc(F)cc3)C2)C1 [Cpd B423] | 972 | 
25 | Cc1nc(CN2CC3(C2)CN(C(=O)Cc2ccccc2F)C3)cs1 [Cpd B424] | 930 | 
26 | COc1cccc(CC(=O)N2CC3(CN(Cc4ccc(F)cc4)C3)C2)c1 [Cpd B425] | 854 | 
27 | Cc1nn(C)cc1CN1CC2(C1)CN(C(=O)NCc1ccc(F)cc1)C2 [Cpd B426] | 850 | 
28 | Cc1cccnc1CN1CC2(C1)CN(C(=O)c1cc3ccccc3s1)C2 [Cpd B427] | 846 | 
29 | COC(=O)c1ccc(CC(=O)N2CC3(CN(Cc4ccc(F)cc4)C3)C2)cc1 [Cpd B428] | 778 | 
30 | Cc1nc(CN2CC3(C2)CN(C(=O)OCc2ccc(Cl)cc2)C3)cs1 [Cpd B429] | 746 | 
31 | Cc1ccccc1CC(=O)N1CC2(CN(Cc3ncccc3C)C2)C1 [Cpd B430] | 690 | 
32 | COc1ncccc1CN1CC2(C1)CN(C(=O)NCc1ccc(F)cc1)C2 [Cpd B431] | 492 | 
33 | O=C(NCc1ccc(F)cc1)N1CC2(CN(Cc3cccnc3F)C2)C1 [Cpd B432] | 482 | 
34 | O=C(Cc1cccc(Cl)c1)N1CC2(CN(Cc3ccc(F)cc3)C2)C1 [Cpd B433] | 469 | 
35 | Cc1ccccc1CC(=O)N1CC2(CN(Cc3ccccc3C)C2)C1 [Cpd B434] | 396 | 
36 | Cc1cccnc1CN1CC2(C1)CN(C(=O)NCc1cccc(C(F)(F)F)c1)C2 [Cpd B435] | 390 | 
37 | Cc1cccnc1CN1CC2(C1)CN(C(=O)Cc1ccccc1F)C2 [Cpd B436] | 389 | 
38 | Cc1cccnc1CN1CC2(C1)CN(C(=O)CC1CCCC1)C2 [Cpd B437] | 354 | 
39 | Cn1ncc(Cl)c1CN1CC2(C1)CN(C(=O)CC1CCC(F)(F)CC1)C2 [Cpd B438] | 317 | 
40 | Cc1ccccc1CC(=O)N1CC2(CN(Cc3ccc(F)cc3)C2)C1 [Cpd B439] | 295 | 
41 | Cc1cnc(CN2CC3(C2)CN(C(=O)NCc2ccc(F)cc2)C3)s1 [Cpd B440] | 260 | 
42 | O=C(NC1CCC(F)(F)CC1)N1CC2(CN(Cc3ncccc3F)C2)C1 [Cpd B441] | 253 | 
43 | O=C(Cc1ccnc(Cl)c1)N1CC2(CN(Cc3ccc(F)cc3)C2)C1 [Cpd B442] | 200 | 
44 | Cc1cccnc1CN1CC2(C1)CN(C(=O)NCc1ccc(F)cc1)C2 [Cpd B443] | 171 | 
45 | Cn1cc(Cl)c(CN2CC3(C2)CN(C(=O)NCc2ccc(F)cc2)C3)n1 [Cpd B444] | 167 | 
46 | Cc1csc(CN2CC3(C2)CN(C(=O)CC2CCC(F)(F)CC2)C3)n1 [Cpd B445] | 157 | 

Row | SMILES | EC50 (M17_3TAU(P301L) cells) [nM] | further results
47 | Cn1cnc(CN2CC3(C2)CN(C(=O)OC2CCC(F)(F)CC2)C3)c1Cl [Cpd B446] | 150 | 
48 | Cn1cnc(CN2CC3(C2)CN(C(=O)NCC2CCC(F)(F)CC2)C3)c1Cl [Cpd B447] | 148 | 
49 | O=C(OCC1CCC(F)(F)CC1)N1CC2(CN(Cc3c(F)cccc3C(F)(F)F)C2)C1 [Cpd B448] | 120 | 
50 | Cc1cc(CN2CC3(C2)CN(C(=O)CC2CCC(F)(F)CC2)C3)n[nH]1 [Cpd B449] | 119 | 
51 | Cc1nc(CN2CC3(C2)CN(C(=O)NC2CCC(F)(F)CC2)C3)cs1 [Cpd B450] | 116 | 
52 | Cc1nc(CN2CC3(C2)CN(C(=O)CC2CCC(F)(F)CC2)C3)sc1C [Cpd B451] | 106 | 
53 | Cc1nc(CN2CC3(C2)CN(C(=O)Nc2ccc(Cl)cc2)C3)cs1 [Cpd B452] | 94.5 | 
54 | O=C(NCC1CCC(F)(F)CC1)N1CC2(CN(Cc3ccc(F)cn3)C2)C1 [Cpd B453] | 83.6 | 
55 | O=C(NC1CCCCC1)N1CC2(CN(Cc3ccc(F)cc3)C2)C1 [Cpd B454] | 76.6 | 
56 | COc1cccc(CN2CC3(C2)CN(C(=O)CC2CCCC2)C3)c1 [Cpd B455] | 74.5 | 
57 | Cc1ncc(CN2CC3(C2)CN(C(=O)CC2CCC(F)(F)CC2)C3)s1 [Cpd B456] | 73.9 | 
58 | O=C(NC1CCC(F)(F)CC1)N1CC2(CN(Cc3ccc(Cl)cn3)C2)C1 [Cpd B457] | 71.5 | 
59 | Cn1cnc(CN2CC3(C2)CN(C(=O)CC2CCC(F)(F)CC2)C3)c1Cl [Cpd B458] | 65.5 | 
60 | O=C(NCC1CCC(F)(F)CC1)N1CC2(CN(Cc3c(F)cccc3C(F)(F)F)C2)C1 [Cpd B459] | 64.8 | 
61 | O=C(NC1CCC(F)(F)CC1)N1CC2(CN(Cc3ccc(C(F)(F)F)cc3)C2)C1 [Cpd B460] | 63 | 
62 | Cc1c(CN2CC3(C2)CN(C(=O)CC2CCC(F)(F)CC2)C3)cnn1C [Cpd B461] | 56.5 | 
63 | Cn1ccc(CN2CC3(C2)CN(C(=O)CC2CCC(F)(F)CC2)C3)n1 [Cpd B462] | 53.1 | 
64 | COc1cccc(CN2CC3(C2)CN(C(=O)OCc2ccc(Cl)cc2)C3)c1 [Cpd B463] | 41.7 | 
65 | O=C(CC1CCC(F)(F)CC1)N1CC2(CN(Cc3ncccc3F)C2)C1 [Cpd B464] | 40.1 | 
66 | O=C(Nc1ccc(OC(F)F)cc1)N1CC2(CN(Cc3ccc(F)cc3)C2)C1 [Cpd B465] | 38.1 | 
67 | O=C(Nc1cccc(Cl)c1)N1CC2(CN(Cc3ccc(F)cc3)C2)C1 [Cpd B466] | 18.6 | 
